From US4435404A, “Carbostyril derivatives” (priority 1980, dated 1984) come the findings set out here.

Where two headings read alike, the source gives them in different places.

The target in data set [1] is T1, cyclic AMP phosphodiesterase (Oryctolagus cuniculus, UniProt G1ST54).
T1 construct: the supernatant was collected to use it as a crude enzyme solution; from tissue; host or cells: rabbit platelets (from platelet-rich plasma)
T1 sequence (G1ST54 1-1128): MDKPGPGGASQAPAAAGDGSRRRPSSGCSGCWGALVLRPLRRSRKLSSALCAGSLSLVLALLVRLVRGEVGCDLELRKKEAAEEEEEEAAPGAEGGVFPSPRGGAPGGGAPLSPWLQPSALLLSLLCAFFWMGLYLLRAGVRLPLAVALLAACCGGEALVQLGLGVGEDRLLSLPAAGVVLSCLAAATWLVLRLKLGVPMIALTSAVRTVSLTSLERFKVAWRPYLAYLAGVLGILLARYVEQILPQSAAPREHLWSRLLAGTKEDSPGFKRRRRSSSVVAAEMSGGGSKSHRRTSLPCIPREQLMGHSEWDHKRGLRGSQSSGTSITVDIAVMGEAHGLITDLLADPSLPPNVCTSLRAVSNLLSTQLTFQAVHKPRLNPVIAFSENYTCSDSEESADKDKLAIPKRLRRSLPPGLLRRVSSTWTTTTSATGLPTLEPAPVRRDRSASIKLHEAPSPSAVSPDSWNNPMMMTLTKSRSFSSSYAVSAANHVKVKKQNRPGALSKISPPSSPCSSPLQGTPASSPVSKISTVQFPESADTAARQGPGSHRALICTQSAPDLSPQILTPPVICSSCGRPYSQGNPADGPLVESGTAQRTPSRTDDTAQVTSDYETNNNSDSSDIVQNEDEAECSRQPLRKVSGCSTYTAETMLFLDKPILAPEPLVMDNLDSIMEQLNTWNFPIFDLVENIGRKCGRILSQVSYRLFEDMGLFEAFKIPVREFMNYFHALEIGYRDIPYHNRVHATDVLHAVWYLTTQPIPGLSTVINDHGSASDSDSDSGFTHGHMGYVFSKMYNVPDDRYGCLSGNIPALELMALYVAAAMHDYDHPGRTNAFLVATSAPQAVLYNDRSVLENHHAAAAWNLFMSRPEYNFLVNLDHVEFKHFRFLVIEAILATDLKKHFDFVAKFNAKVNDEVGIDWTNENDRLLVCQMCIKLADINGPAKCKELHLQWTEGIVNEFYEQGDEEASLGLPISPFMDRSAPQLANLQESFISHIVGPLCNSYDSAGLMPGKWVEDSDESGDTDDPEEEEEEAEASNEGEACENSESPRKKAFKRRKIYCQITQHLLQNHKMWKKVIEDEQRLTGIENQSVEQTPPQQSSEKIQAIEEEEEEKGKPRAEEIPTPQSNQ
The data set is described as follows: Obstructive action against cyclic AMP phosphodiesterase. The class given is biochemical. As to conditions: rabbit platelet enzyme, 30° C., 20 minutes. On the procedure:
That is, for determining the obstructive activity against cyclic AMP phosphodiesterase, 10 ml of a solution obtained by adding 1 mmol of MgCl2 into 50 mmol of tris-hydrochloric acid buffer with pH 7.4 was added to the platelets obtained by further centrifuging the above-said rabbit PRP at 3,000 r.p.m. for 10 minutes, and the suspended platelets were ground by a Teflon potter type homogenizer. This was followed by two times of freezing and thawing treatment and 300-second fracturing with 200 watt supersonic waves. After additional 60-minute centrifugation with 100,000 G, the supernatant was collected to use it as a crude enzyme solution.
10 Milliliters of this crude buffer solution was added to a 1.5×20 cm DEAE-cellulose column which has previously been buffered with 50 mM of tris-acetate buffer (pH 6.0), followed by washing and elution with 30 ml of 50 mM tris-acetate buffer, and this buffer solution was subjected to linear gradient elution with 0 to 0.5 moles of sodium acetate-tris-acetatebuffer (total amount of elute was 300 ml.). The flow rate was 0.5 ml/min, and 5 ml of each fraction was batched out. […] This fraction was used as cyclic AMP phosphodiesterase.
0.1 Milliliter of an aqueous solution of each test compound of a specified concentration was mixed with 40 mmol of tris-hydrochloric acid buffer (pH 8.0, containing 50 μg of cow serum albumin and 4 mmol of MgCl2) containing predetermined 1.0 μmol of cyclic AMP (tritium cyclic AMP), and 0.2 ml of this mixed solution was used as substrate solution.
0.2 Milliliter of the above-prepared cyclic AMP phosphodiesterase of a predetermined concentration was added to said substrate solution and the mixture was reacted at 30° C. for 20 minutes, producing tritium 5'-AMP from the tritium cyclic AMP.
The reaction system was then immersed in boiling water for 2 minutes to stop the reaction, and then this reaction solution was cooled in ice water and, for converting the produced tritium 5'-AMP into tritium adenosine, the solution was added with 0.05 ml (1 mg/ml) of snake poison as 5'-nucleotidase and reacted at 30° C. for 10 minutes. The whole amount of this reaction solution was then added to a cation exchange resin (AG 500 W×4, 200-400 meshes, manufactured by Bio-Rad Co., column size: 0.5×1.5 cm), and the produced tritium anodesine alone was allowed to combine, washed with 6 ml of distilled water and eluted with 1.5 ml of 3 N-ammonia water. The whole quantity of the elutant was added with 10 ml of a triton-toluene type scintillator and the produced tritium adenosine was measured by a liquid scintillation counter to determine the phosphodiesterase activity.
In this way, the phosphodiesterase activation value (Vs) of the test compounds of the respective concentrations was determined, and the phosphodiesterase obstruction rate (%) was determined from said activation value (Vs) and control value (Vc) (obtained from water not containing any test compound) from the following formula: [formula] Known 1-methyl-3-isobutylxanthine was used as control.

Another data set has as its system Wistar strain male rats. Kind of data set: Test of increasing effect of heart rate. Particulars: 30 mg/kg oral, 60 minutes after the administration. The class given is in vivo, rat. The protocol:
Wistar strain male rats, having 180-230 g of body weight, were abstained from food for 24 hours, the electrocardiograms introduced from the second induction period were recorded on oscillograph. The heart rate was calculated from the electrocardiograms by observing them for 10 seconds several times. […] 60 Minutes after the administration, the heart rate was measured and increasing effect of the heart rate was calculated. Generally, an average heart rate of an usual Wistar strain male rat is about 320 beat/minute.

The nature of another data set: Acute Toxicity Test. Particulars: mouse, in vivo; male mice, oral administration. On the procedure:
The test compounds were administered orally to the mice and LD50 (mg/kg) of the compounds was determined.

Data set [2] deals with ADP-induced aggregation in rabbit platelet. Kind of data set: Inhibition effect on ADP-induced aggregation in rabbit platelet. The data set is classed as cell-based. Particulars: Oryctolagus cuniculus, Platelet; for inhibition at 100 µM: concentration of the test compound solution 10^-4 mole. The procedure, abridged:
(§1)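 Citrated rabbit PRP was diluted with PPP to 300,000 platelets/mm^3 for the ADP test or 450,000/mm^3 for the collagen test. Samples were preincubated with compound for 1 min at 37 °C before adding inducer: ADP solution at 7.5×10^-5 M (stock) or collagen supernatant. Light-transmittance aggregation was recorded at 1,100 rpm stirring, and percent inhibition was calculated against control aggregation rate, with acetylsalicylic acid as reference.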

For data set [3], the system named is collagen-induced aggregation in rabbit platelet. The data set is described as follows: Inhibition effect on collagen-induced aggregation in rabbit platelet. The data set is classed as cell-based. As to conditions: Oryctolagus cuniculus, Platelet, read-out: Inhibition effect on collagen-induced aggregation. The procedure, abridged: as §1
The mark [4] stands for this setting: concentration of the test compound solution 10^-5 mole, read-out: Inhibition effect on ADP-induced aggregation.
[5] abbreviates: concentration of the test compound solution 10^-6 mole, read-out: Inhibition effect on ADP-induced aggregation.
The mark [6] stands for this setting: concentration of the test compound solution 10^-5 mole.
Setting [7] is: concentration of the test compound solution 10^-6 mole.
[8] abbreviates: read-out: Inhibition effect on ADP-induced aggregation.

For orientation: IC50 means the point on the concentration scale where inhibition reaches its midpoint. Lower therefore signals greater potency in that assay. What is called LD50 is the dose expected to kill half of the subjects tested. As a reminder, the inhibition is the change of the read-out against control, counted positive when it falls. For `CN(CC1CCCCO1)C(=O)CCCOc1ccc2[nH]c(=O)ccc2c1` (stereo not drawn) [No. 6, 6-{3-[N-Methyl-N-(2-tetrahydropyranylmethyl)aminocarbonyl]propoxy}carbostyril], the IC50 in data set [1] was 52 nM. The “Increasing effect of heart rate” value in the data set with Wistar strain male rats is on record as 40 Beat/min. In addition, in “Acute Toxicity Test”, the LD50 was above 1000 mg/kg. Further, the inhibition at 100 µM in data set [2] came to 75%. Moreover, the inhibition at 10 µM was 24.6% in data set [2] (setting [4]) and 48.1% in data set [3] (setting [6]). For the same compound, the inhibition at 1 µM in data set [2] (setting [5]) was 14.7%; in data set [3] (setting [7]), 3.8%.
Take `O=C(CCCOc1ccc2[nH]c(=O)ccc2c1)N1CCN(c2ccccc2)CC1` [No. 14, 6-[3-(4-Phenyl-1-piperazinylcarbonyl)propoxy]carbostyril]: in data set [1], the IC50 was 52 nM. In the data set with Wistar strain male rats, the “Increasing effect of heart rate” value was found to be 32 Beat/min. For the same compound, the 50% lethal dose (LD50) in “Acute Toxicity Test” is above 1000 mg/kg. Further, the inhibition at 100 µM in data set [2] came out at 100%. For the same compound, the results for the inhibition at 10 µM in data set [2] (setting [4]) and in data set [3] (setting [6]) were 87.7% and 100%, respectively. Further, the inhibition at 1 µM in data set [2] (setting [5]) turned out to be 15.7%; in data set [3] (setting [7]), 31%.
In data set [1], `CN(C(=O)CCCOc1ccc2[nH]c(=O)ccc2c1)C1CCCCC1` [No. 39, 6-[3-(N--Methyl-N--cyclohexylaminocarbonyl)-propoxy]carbostyril, reference compound] yielded an IC50 of 16 nM. In the data set with Wistar strain male rats, the “Increasing effect of heart rate” value is given as 104 Beat/min. In addition, in data set [2] (setting [8]), the inhibition at 0.1 µM was 32.8%, the inhibition at 1 µM was 62.1% and the inhibition at 10 µM was 91.7%. In data set [3], the inhibition at 0.1 µM stood at 57%, the inhibition at 1 µM is 90.2% and the inhibition at 10 µM amounted to 90.5%.
